Source: patent US7838516B2, “15 β-substituted steroids having selective estrogenic activity” (priority 2004, dated 2010)

Assays:
[1] = target: T1, human estrogen receptor α (hERα) (Homo sapiens, UniProt P03372); test: In vitro bioassay of estrogenic agonistic transactivation in recombinant CHO cells (hERα, rat oxytocin promoter, luciferase reporter); assay type: cell-based
T1 sequence (P03372 1-595): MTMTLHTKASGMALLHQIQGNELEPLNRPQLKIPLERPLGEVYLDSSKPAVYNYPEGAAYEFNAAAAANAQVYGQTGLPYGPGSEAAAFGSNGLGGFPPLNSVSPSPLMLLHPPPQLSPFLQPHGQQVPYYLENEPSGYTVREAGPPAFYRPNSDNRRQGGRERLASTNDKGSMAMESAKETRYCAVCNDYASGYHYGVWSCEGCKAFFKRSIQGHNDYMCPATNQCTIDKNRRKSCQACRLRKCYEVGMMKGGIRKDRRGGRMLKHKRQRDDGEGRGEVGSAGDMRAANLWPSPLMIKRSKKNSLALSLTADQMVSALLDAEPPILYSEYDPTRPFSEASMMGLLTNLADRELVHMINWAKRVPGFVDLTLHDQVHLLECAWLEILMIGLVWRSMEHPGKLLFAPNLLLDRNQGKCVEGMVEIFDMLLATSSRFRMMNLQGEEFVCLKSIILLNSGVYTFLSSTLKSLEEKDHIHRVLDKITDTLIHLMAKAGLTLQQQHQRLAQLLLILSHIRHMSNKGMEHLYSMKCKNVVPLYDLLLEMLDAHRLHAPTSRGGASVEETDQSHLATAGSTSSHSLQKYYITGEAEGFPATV
Experimental: (§1) The agonistic activity of compounds on the estrogen receptors was determined in an in vitro bioassay with recombinant Chinese hamster ovary (CHO) cells stably co-transfected with the human estrogen receptor α (hERα) or β (hERβ), the rat oxytocin promoter (RO) and the luciferase reporter gene (LUC). […] A more detailed description of the methodology can be found in De Gooyer M. E., Deckers G. H., Schoonen W. G. E. J., Verheul H. A. M. and Kloosterboer H. J., Steroids, Vol. 68, 2003, pp. 21-30.
(§2) ERα/ERβ selectivity is defined as the ratio ERα-potency/ERβ-potency.

[2] = system: Cynomolgus monkey uterine tissue (endometrium); test: Histopathological evaluation of Cynomolgus monkey uterine tissue after 8 week oral treatment; assay type: in vivo; settings: 8 weeks, average score per category, grades 0-5
Experimental: Histopathological evaluation of Cynomolgus monkey uterine tissue was performed by a pathologist after an 8 week oral treatment with the test compound in four animals per treatment group. […] The following morphological characteristics were examined in H&E stained sections, based on the uterine phases of the normal menstrual cycle in Cynomolgus monkeys. • A. Follicular phase-like changes: • loose endometrial stroma • straight endometrial glands • hypertrophy of endometrial epithelium • mitotic figures • hypertrophy of myometrium • early angiogenesis (sprouting or early proliferation) • basal secretion • B. Luteal phase-like changes • pseudodecidually enlarged stromal cells • coiling of endometrial glands • late angiogenesis (spiral artery formation) • vacuolation of endometrial epithelium • luminal secretion • C. Ovariectomized or non-stimulated (atrophic) endometrium • compact endometrial stroma • atrophy of endometrial epithelium • atrophy of endometrial glands • atrophy of myometrium The severity of each of these above-mentioned findings was scored using a scale of grading: • grade 0: finding not present • grade 1: minimal, very few, very small • grade 2: slight, few, small • grade 3: moderate, moderate number, moderate size • grade 4: marked, many, large • grade 5: massive, extensive number, extensive size For each animal this grading was done. Then the average score per treatment group was calculated for each characteristic. Finally, an average score per category, atrophic, follicular- or luteal phase-like, was calculated from the average individual characteristics. A favourable endometrial safety profile for a compound is characterized by less compound-induced follicular phase-like activity combined with more luteal phase-like characteristics and/or atrophic endometrium.

[3] = target: human estrogen receptor β (hERβ) (Homo sapiens, UniProt Q92731); test: In vitro bioassay of estrogenic agonistic transactivation in recombinant CHO cells (hERβ, rat oxytocin promoter, luciferase reporter); assay type: cell-based
Sequence of human estrogen receptor β (hERβ) (Q92731 whole entry): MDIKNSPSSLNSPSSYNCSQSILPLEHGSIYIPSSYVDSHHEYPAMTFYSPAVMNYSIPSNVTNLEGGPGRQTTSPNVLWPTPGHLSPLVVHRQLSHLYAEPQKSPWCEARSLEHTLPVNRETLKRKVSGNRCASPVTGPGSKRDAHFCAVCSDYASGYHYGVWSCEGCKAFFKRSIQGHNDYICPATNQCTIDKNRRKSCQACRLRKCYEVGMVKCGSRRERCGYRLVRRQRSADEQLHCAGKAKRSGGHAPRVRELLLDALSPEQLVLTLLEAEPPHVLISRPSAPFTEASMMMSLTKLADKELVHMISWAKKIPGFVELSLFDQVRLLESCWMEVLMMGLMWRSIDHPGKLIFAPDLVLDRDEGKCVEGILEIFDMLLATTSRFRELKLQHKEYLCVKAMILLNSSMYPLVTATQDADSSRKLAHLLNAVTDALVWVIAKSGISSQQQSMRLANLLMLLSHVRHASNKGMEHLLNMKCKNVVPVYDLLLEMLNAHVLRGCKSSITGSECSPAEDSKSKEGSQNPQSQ
Experimental: as §1, §2

[4] = system: progesterone-induced lordosis behavior in female ovariectomised rats; test: Facilitation of progesterone-induced lordosis behavior in female ovariectomised rats; assay type: in vivo, rat; settings: oral dosing at 1 mg/kg.day, three days pre-treatment, then progestagen
Text: Rat female sexual behavior is hormone dependent. In estrogen-primed female rats progesterone clearly enhances female sexual or lordosis behavior. However, progesterone is not effective in inducing lordosis in ovariectomised females that have not received estrogen (see also J. B. Becker, S. M. Breedlove and D. Crews (Eds.), Behavioral Endocrinology, 1992, pp. 82-84).
Females were pre-treated for three days with test compound followed by treatment with a progestagen on the fourth day. Four hours after progesterone treatment sexual behavior of the female rat was measured in the presence of a male rat by counting the number of lordosis responses during 10 minutes.

[5] = relative to 17β-estradiol: (EC50 17β-estradiol/EC50 test compound)×100%, CHO cells, luciferase

## C#C[C@]1(O)C[C@@H](C)[C@H]2[C@@H]3[C@H](CC)Cc4cc(O)ccc4[C@H]3CC[C@@]21C [Compound 8, 7α-ethyl-15β-methyl-19-nor-17α-pregna-1,3,5(10)-trien-20-yne-3,17β-diol]
[1]; ratio ERα-potency/ERβ-potency
  ERα/ERβ-selectivity (potency): 15.2
[1]; [5]
  ERα-potency (%): 23.45%
[2]; 40 μg/kg once daily oral
  Monkey Endometrial profile (scores): Atrophic: 3.0
  Monkey Endometrial profile (scores): Follicular: 0.0
  Monkey Endometrial profile (scores): Luteal: 0.0
[2]; 200 μg/kg once daily oral
  Monkey Endometrial profile (scores): Atrophic: 2.3
  Monkey Endometrial profile (scores): Follicular: 0.5
  Monkey Endometrial profile (scores): Luteal: 0.2
[3]; in words
  agonist character at the estrogen β-receptor: partial agonist
[3]; maximal activation relative to maximal activation by 17β-estradiol
  ERβ-efficacy (%): 40%
[3]; [5]
  ERβ-potency (%): 1.54%

## C#CC1(O)CC(C)C2C3C(CC)Cc4cc(OC(=O)C(C)(C)C)ccc4C3CCC21C (stereo not drawn) [Compound 9a, 3-pivaloyloxy-7α-ethyl-15β-methyl-19-nor-17α-pregna-1,3,5(10)-trien-20-yne-17β-ol]
[4]
  in vivo estrogenic activity (facilitation of lordosis): active estrogenic compounds

## C#C[C@]1(O)CC[C@H]2[C@@H]3CCc4cc(O)ccc4[C@H]3CC[C@@]21C [Compound X, 17α-ethynyl-17β-estradiol, reference compound]
[2]; 40 μg/kg once daily oral
  Monkey Endometrial profile (scores): Atrophic: 0
  Monkey Endometrial profile (scores): Follicular: 2.8
  Monkey Endometrial profile (scores): Luteal: 0.4

## C[C@]12CC[C@@H]3c4ccc(O)cc4CC[C@H]3[C@@H]1CC[C@@H]2O [Compound Y, 17β-estradiol, reference compound]
[2]; 200 μg/kg once daily oral
  Monkey Endometrial profile (scores): Atrophic: 0
  Monkey Endometrial profile (scores): Follicular: 3.6
  Monkey Endometrial profile (scores): Luteal: 0.2
